These compounds were tested against IMPDH human type II (Homo sapiens, UniProt P12268) (assay: IMPDH Activity Inhibition Assay). Conditions: spectrophotometric NADH formation at 340 nm, 37° C., tight-binding equation of Henderson.
Format: biochemical
Experimental: IMP dehydrogenase activity was assayed following an adaptation of the method first reported by Magasanik. [B. Magasanik et al., J. Biod. Chem., 226, p. 339 (1957), the disclosure of which is herein incorporated by reference]. Enzyme activity was measured spectrophotometrically, by monitoring the increase in absorbance at 340 nm due to the formation of NADH (ε340 is 6220 M^−1 cm^−1). The reaction mixture contained 0.1 M Tris pH 8.0, 0.1 M KCl, 3 mM EDTA, 2 mM DTT, […] and enzyme (IMPDH human type II) at a concentration of 15 to 50 nM. This solution is incubated at 37° C. for 10 minutes. The reaction is started by adding NAD to a final concentration of […] and the initial rate is measured by following the linear increase in absorbance at 340 nm for 10 minutes. For reading in a standard spectrophotometer (path length 1 cm) the final volume in the cuvette is 1.0 ml. The assay has also been adapted to a 96 well microtiter plate format; in this case the concentrations of all the reagents remain the same and the final volume is decreased to 200 μl.
For the analysis of inhibitors, the compound in question is dissolved in DMSO to a final concentration of 20 mM and added to the initial assay mixture for preincubation with the enzyme at a final volume of 2-5% (v/v). The reaction is started by the addition of NAD, and the initial rates measured as above. Ki determinations are made by measuring the initial, velocities in the presence of varying amounts of inhibitor and fitting the data using the tight-binding equation of Henderson (Henderson, P. J. F. (1972) Biochem. J. 127, 321].

| SMILES | Ki [µM] |
| --- | --- |
| O=C(Nc1ccccc1OC(F)(F)F)c1cc2ccccc2cc1O [Compound 135] | 10 to 20 |
| O=C(Nc1cccc(Cl)c1)c1cc2ccccc2cc1O [Compound 156] | 10 to 20 |
| COc1cc2c(cc1NC(=O)c1cc3ccccc3cc1O)oc1ccccc12 [Compound 172] | < 10 |
| COc1ccccc1NC(=O)c1cc2ccccc2cc1OC(=O)c1ccccc1 [Compound 111] | < 10 |
| N#Cc1cccc(NC(=O)c2cc3ccccc3cc2O)c1 [Compound 145] | 10 to 20 |
| N#Cc1ccccc1NC(=O)c1cc2ccccc2cc1O [Compound 144] | 10 to 20 |
| Cc1cccc(NC(=O)c2cc3ccccc3cc2O)c1 [Compound 122] | 10 to 20 |
| O=C(Nc1cccc(F)c1)c1cc2ccccc2cc1O [Compound 163] | 10 to 20 |
| O=C(Nc1ccccc1Oc1ccccc1)c1cc(Br)ccc1O [Compound 204] | > 20 |
| CCOc1ccccc1NC(=O)c1cc2ccccc2cc1O [Compound 167] | 10 to 20 |
| CCOc1cccc(NC(=O)c2cc3ccccc3cc2O)c1 [Compound 168] | 10 to 20 |
| C=CCN(C(=O)c1cc2ccccc2cc1O)c1ccccc1OC [Compound 106] | 10 to 20 |
| COc1ccc(-c2ccccc2)cc1NC(=O)c1cc2ccccc2cc1O [Compound 154] | 10 to 20 |
| CSc1ccccc1NC(=O)c1cc2ccccc2cc1O [Compound 169] | < 10 |
| O=C(Nc1ccccc1Oc1ccccc1)c1ccc2ccccc2c1O [Compound 193] | 10 to 20 |
| COc1ccccc1N(C)C(=O)c1cc2cc(Br)ccc2cc1O [Compound 149] | 10 to 20 |
| CCCC(=O)Oc1cc2ccccc2cc1C(=O)Nc1ccc(C)cc1 [Compound 118] | 10 to 20 |

| SMILES | Ki [µM] |
| --- | --- |
| COc1ccccc1N(Cc1ccccc1)C(=O)c1cc2ccccc2cc1O [Compound 107] | 10 to 20 |
| COc1ccccc1C(=O)Nc1ccccc1Oc1ccccc1 [Compound 196] | 10 to 20 |
| COc1ccccc1NC(=O)c1ccc2ccccc2c1O [Compound 146] | 10 to 20 |
| COc1ccccc1NCc1cc2cc(Br)ccc2cc1O [Compound 115] | < 10 |
| COc1cc(NC(=O)c2cc3ccccc3cc2O)ccc1-c1cnco1 [Compound 126] | < 10 |
| O=C(Nc1cccc(OC(F)(F)F)c1)c1ccc2ccccc2c1 [Compound 143] | < 10 |
| CCCCC(=O)Oc1cc2ccccc2cc1C(=O)Nc1ccccc1OC [Compound 148] | 10 to 20 |
| O=C(Nc1ccccc1F)c1cc2ccccc2cc1O [Compound 162] | 10 to 20 |
| COc1cc(OC)c(NC(=O)c2cc3ccccc3cc2O)cc1Cl [Compound 171] | 10 to 20 |
| C=CCOc1cc2ccc(Br)cc2cc1C(=O)Nc1ccccc1OC [Compound 140] | < 10 |
| O=S(=O)(Nc1ccc(-c2cnco2)cc1)c1ccccc1 [Compound 301] | 10 to 20 |
| COc1ccc(C(F)(F)F)cc1NC(=O)c1cc2ccccc2cc1O [Compound 180] | 10 to 20 |
| COc1ccccc1N(C)C(=O)c1cc2ccccc2cc1O [Compound 105] | 10 to 20 |
| COc1ccccc1NC(=O)c1cc2cc(Br)ccc2cc1OCc1ccccc1 [Compound 141] | < 10 |
| O=C(Nc1cccc(Br)c1)c1cc2ccccc2cc1O [Compound 130] | 10 to 20 |
| COc1ccccc1NC(=O)c1cc2ccccc2cc1NC(=O)C(F)(F)F [Compound 137] | 10 to 20 |

Now from value to compound:

| Ki [µM] | SMILES |
| --- | --- |
| 10 to 20 | COc1ccccc1NS(=O)(=O)c1cc(Cl)cc(Cl)c1O [Compound 321] |
| 10 to 20 | COc1ccc(NC(=O)c2cc3ccccc3cc2O)c(OC)c1 [Compound 186] |
| < 10 | COc1ccc(C)cc1NC(=O)c1cc2ccccc2cc1O [Compound 178] |
| > 20 | COc1ccccc1NC(=O)c1ccc(C)cc1O [Compound 197] |
| 10 to 20 | COc1ccc(OC)c(NC(=O)c2cc3ccccc3cc2O)c1 [Compound 179] |
| 10 to 20 | COc1ccc(Br)cc1S(=O)(=O)Nc1cc2ccccc2cc1O [Compound 319] |
| 10 to 20 | COc1ccc(NC(=O)c2cc3ccccc3cc2O)cc1OC [Compound 187] |
| 10 to 20 | CCS(=O)(=O)c1ccc(OC)c(NC(=O)c2cc3ccccc3cc2O)c1 [Compound 159] |
| < 10 | COc1ccccc1NC(=O)c1cc2ccccc2cc1O [Compound 100] |
| 10 to 20 | COc1ccccc1NC(=O)c1cc2ccccc2cc1OC(=O)C(C)(C)C [Compound 112] |
| 10 to 20 | COc1ccc(Br)cc1S(=O)(=O)Nc1ccccc1O [Compound 323] |
| 10 to 20 | O=[N+]([O-])c1cccc(S(=O)(=O)Nc2ccc(-c3cnco3)cc2)c1 [Compound 300] |
| > 20 | COc1ccc(C)cc1NC(=O)c1ccccc1OC [Compound 194] |
| 10 to 20 | COc1ccc(OC)c(S(=O)(=O)Nc2ccccc2C#N)c1 [Compound 312] |
| 10 to 20 | COc1ccc(C(N)=O)cc1NC(=O)c1cc2ccccc2cc1O [Compound 165] |
| 10 to 20 | COc1ccccc1NC(=O)c1cc(Br)ccc1O [Compound 201] |
| 10 to 20 | COc1ccc(OC)c(S(=O)(=O)Nc2cccc([N+](=O)[O-])c2)c1 [Compound 307] |
| 10 to 20 | COc1ccccc1NC(=O)c1ccccc1OC [Compound 108] |
| 10 to 20 | COc1ccccc1S(=O)(=O)Nc1ccccc1O [Compound 324] |
| > 20 | COc1ccc(C)cc1NC(=O)c1ccc(C)cc1O [Compound 198] |

From patent publication US6653309B1, “Inhibitors of IMPDH enzyme technical field of the invention” (Vertex Pharmaceuticals Incorporated, priority 1999, dated 2003)
